Where two headings read alike, the source gives them in different places.
How the values were obtained:
[1] = test system: MBNL1 exon 5 inclusion in DM1 myotubes; experiment: Myotube splicing rescue assay (MBNL1 exon 5 inclusion); assay type: cell-based, human; details: 48-hour incubation
HSALR strain 20b mice = experiment: DM1 mouse efficacy study: RT-PCR of MBNL1-dependent splicing targets in gastrocnemius; assay type: in vivo; details: sc, subcutaneous
r(CUG)12-MBNL1 complex = experiment: Inhibition of the r(CUG)12-MBNL1 complex measured by TR-FRET; assay type: biochemical; details: 80 nM RNA, 60 nM MBNL1-His6
[2] = 7.5 mg/kg qod 8 doses, read-out: Clcn1 exon 7a splicing rescue %
[3] = 7.5 mg/kg qod 8 doses, read-out: Mbnl1 exon 5 splicing rescue %
[4] = 7.5 mg/kg qod 8 doses, read-out: Serca1 exon 22 splicing rescue %
[5] = 7.5 mg/kg qod 8 doses, read-out: Zasp exon 11 splicing rescue %

Row | SMILES | IC50 (r(CUG)12-MBNL1 complex; Table M) | MBNL1 % splicing rescue at 1 μM [1] | MBNL1 % splicing rescue at 10 μM [1] | further results
1 | CN(C)CCCOc1ccc2nc(-c3ccc(-c4nc5ccc(OCCCN(C)C)cc5[nH]4)cc3)[nH]c2c1 [Compound 58, 3,3′-((2,2′-(1,4-phenylene)bis(1H-benzo[d]imidazole-6,2-diyl))bis(oxy))bis(N,N-dimethylpropan-1-amine)] | – | 11.0% | 79.1% | percent splicing rescue at 7.5 mg/kg (HSALR strain 20b mice; [2]): 68.3%; percent splicing rescue at 7.5 mg/kg (HSALR strain 20b mice; [3]): 80.2%; percent splicing rescue at 7.5 mg/kg (HSALR strain 20b mice; [4]): 90.5%; percent splicing rescue at 7.5 mg/kg (HSALR strain 20b mice; [5]): 102%; IC50 (r(CUG)12-MBNL1 complex; Table L): 19.8 µM
2 | CN(C)CCCSc1ccc2nc(-c3ccc(-c4nc5ccc(SCCCN(C)C)cc5[nH]4)cc3)[nH]c2c1 [Compound 60, 3,3′-((2,2′-(1,4-phenylene)bis(1H-benzo[d]imidazole-6,2-diyl))bis(sulfanediyl))bis(N,N-dimethylpropan-1-amine)] | – | 18.9% | 80.9% | percent splicing rescue at 7.5 mg/kg (HSALR strain 20b mice; 7.5 mg/kg qod 5 doses, read-out: Clcn1 exon 7a splicing rescue %): 87.7%; percent splicing rescue at 7.5 mg/kg (HSALR strain 20b mice; 7.5 mg/kg qod 5 doses, read-out: Mbnl1 exon 5 splicing rescue %): 95.3%; percent splicing rescue at 7.5 mg/kg (HSALR strain 20b mice; 7.5 mg/kg qod 5 doses, read-out: Serca1 exon 22 splicing rescue %): 86%; percent splicing rescue at 7.5 mg/kg (HSALR strain 20b mice; 7.5 mg/kg qod 5 doses, read-out: Zasp exon 11 splicing rescue %): 88.3%; IC50 (r(CUG)12-MBNL1 complex; Table L): 40 µM
3 | Nc1ccc2nc(-c3ccc(-c4nc5ccc(NC6=NCCN6C6=NCCN6)cc5[nH]4)cc3)[nH]c2c1 [Compound 75, 2-(4-(6-amino-1H-benzo[d]imidazol-2-yl)phenyl)-N-(4,4′,5,5′-tetrahydro-1H-[1,2′-biimidazol]-2-yl)-1H-benzo[d]imidazol-6-amine] | – | – | 0.0% | percent splicing rescue at 30 mg/kg (HSALR strain 20b mice; 30 mg/kg qd 7 doses, read-out: Clcn1 exon 7a splicing rescue %): 39.4%; percent splicing rescue at 30 mg/kg (HSALR strain 20b mice; 30 mg/kg qd 7 doses, read-out: Mbnl1 exon 5 splicing rescue %): 93.9%; percent splicing rescue at 30 mg/kg (HSALR strain 20b mice; 30 mg/kg qd 7 doses, read-out: Serca1 exon 22 splicing rescue %): 50%; percent splicing rescue at 30 mg/kg (HSALR strain 20b mice; 30 mg/kg qd 7 doses, read-out: Zasp exon 11 splicing rescue %): 95.6%; IC50 (r(CUG)12-MBNL1 complex; Table L): 3.2 µM
4 | CN(C)CCNC(=O)c1ccc(-c2nc3cc(-c4ccc5[nH]c(-c6ccc(C(=O)NCCN(C)C)cc6)nc5c4)ccc3[nH]2)cc1 [Compound 108, 4,4′-(1H,1′H-[5,5′-bibenzo[d]imidazole]-2,2′-diyl)bis(N-(2-(dimethylamino)ethyl)benzamide)] | – | 0.0% | 63.4% | percent splicing rescue at 30 mg/kg (HSALR strain 20b mice; 30 mg/kg qod 8 doses, read-out: Clcn1 exon 7a splicing rescue %): 32.5%; percent splicing rescue at 30 mg/kg (HSALR strain 20b mice; 30 mg/kg qod 8 doses, read-out: Mbnl1 exon 5 splicing rescue %): 57.4%; percent splicing rescue at 30 mg/kg (HSALR strain 20b mice; 30 mg/kg qod 8 doses, read-out: Serca1 exon 22 splicing rescue %): 59.1%; percent splicing rescue at 30 mg/kg (HSALR strain 20b mice; 30 mg/kg qod 8 doses, read-out: Zasp exon 11 splicing rescue %): 50.1%; IC50 (r(CUG)12-MBNL1 complex; Table L): 13 µM
5 | CN(C)CCCOc1ccc(-c2nc3cc(-c4ccc5[nH]c(-c6ccc(OCCCN(C)C)cc6)nc5c4)ccc3[nH]2)cc1 [Compound 152] | – | 85.4% | 79.8% | percent splicing rescue at 7.5 mg/kg (HSALR strain 20b mice; [3]): 40.6%; percent splicing rescue at 7.5 mg/kg (HSALR strain 20b mice; [4]): -19.8%; percent splicing rescue at 7.5 mg/kg (HSALR strain 20b mice; [5]): 46.1%; IC50 (r(CUG)12-MBNL1 complex; Table L): 10.7 µM
6 | CN(C)CCOc1ccc(-c2nc3cc(-c4ccc5[nH]c(-c6ccc(OCCN(C)C)cc6)nc5c4)ccc3[nH]2)cc1 [Compound 153] | – | 82.1% | 106.1% | percent splicing rescue at 7.5 mg/kg (HSALR strain 20b mice; [2]): 48.4%; percent splicing rescue at 7.5 mg/kg (HSALR strain 20b mice; [3]): 40.8%; percent splicing rescue at 7.5 mg/kg (HSALR strain 20b mice; [4]): 34%; percent splicing rescue at 7.5 mg/kg (HSALR strain 20b mice; [5]): 59.7%; IC50 (r(CUG)12-MBNL1 complex; Table L): 29 µM
7 | c1ccc(COc2ccc(-c3nc4cc(-c5ccc6[nH]c(-c7ccc(OCc8ccccn8)cc7)nc6c5)ccc4[nH]3)cc2)nc1 [Compound 352] | 25.8 µM | 3.1% | 9.6% | –
8 | CCN(CC)CCOc1ccc(-c2nc3cc(-c4ccc5[nH]c(-c6ccc(OCCN(CC)CC)cc6)nc5c4)ccc3[nH]2)cc1 [Compound 353] | 13.3 µM | 7.5% | – | –
9 | CN1CCC[C@H]1COc1ccc(-c2nc3cc(-c4ccc5[nH]c(-c6ccc(O)cc6)nc5c4)ccc3[nH]2)cc1 [Compound 357] | 15.1 µM | 1.1% | 66.0% | –
10 | CN(C)CCCCCOc1ccc(-c2nc3cc(-c4ccc5[nH]c(-c6ccc(OCCCCCN(C)C)cc6)nc5c4)ccc3[nH]2)cc1 [Compound 371] | 12.8 µM | 79.7% | 72.4% | –
11 | CN(C)CCCNC(=O)c1ccc(-c2nc3cc(-c4ccc5[nH]c(-c6ccc(C(=O)NCCCN(C)C)cc6)nc5c4)ccc3[nH]2)cc1 [Compound 393] | 7.48 µM | – | 17.1% | –
12 | CC(=O)NCCCn1cc(CCCCN(C)CCNC(=O)c2ccc(-c3nc4cc(-c5ccc6[nH]c(-c7ccc(C(=O)NCCN(C)C)cc7)nc6c5)ccc4[nH]3)cc2)nn1 [Compound 402] | 10.9 µM | – | – | MBNL1 % splicing rescue at 5 μM [1]: −33.8%
13 | C#CCCCCN(C)CCNC(=O)c1ccc(-c2nc3cc(-c4ccc5[nH]c(-c6ccc(OCCCN(C)C)cc6)nc5c4)ccc3[nH]2)cc1 [Compound 403] | 5.6 µM | – | 90.5% | –
14 | O=C(NCCN1CCN(CCNC(=O)c2ccc3nc(-c4ccc(-c5nc6ccc(C(=O)NCCN7CCCCC7)cc6[nH]5)cc4)[nH]c3c2)CC1)NCCN1CCN(CCNC(=O)c2ccc3nc(-c4ccc(-c5nc6ccc(C(=O)NCCN7CCCCC7)cc6[nH]5)cc4)[nH]c3c2)CC1 [Compound 406, N,N′-((((carbonylbis(azanediyl))bis(ethane-2,1-diyl))bis(piperazine-4,1-diyl))bis(ethane-2,1-diyl))bis(2-(4-(6-((2-(piperidin-1-yl)ethyl)carbamoyl)-1H-benzo[d]imidazol-2-yl)phenyl)-1H-benzo[d]imidazole-6-carboxamide)] | 3.03 µM | 9.4% | 54.3% | –
15 | CN(C)CCCOc1ccc(-c2nc3cc(-c4ccc5[nH]c(-c6ccc(C(=O)NCCCn7cc(COCCOCCN(C)C(=O)c8ccc(-c9nc%10cc(-c%11ccc%12[nH]c(-c%13ccc(C(=O)NCCN(C)C)cc%13)nc%12c%11)ccc%10[nH]9)cc8)nn7)cc6)nc5c4)ccc3[nH]2)cc1 [Compound 458] | 20.5 µM | – | – | MBNL1 % splicing rescue at 5 μM [1]: −14.7%
16 | C[C@@H](NC(=O)CNCCCn1cc(CCCCN(C)CCNC(=O)c2ccc(-c3nc4cc(-c5ccc6[nH]c(-c7ccc(C(=O)NCCN(C)C)cc7)nc6c5)ccc4[nH]3)cc2)nn1)C(=O)N[C@H](C)C(=O)N[C@H](C)C(=O)N[C@H](C)C(=O)N(CCCn1cc(CCCCN(C)CCNC(=O)c2ccc(-c3nc4cc(-c5ccc6[nH]c(-c7ccc(C(=O)NCCN(C)C)cc7)nc6c5)ccc4[nH]3)cc2)nn1)CC(N)=O [Compound 460] | 1.3 µM | – | – | MBNL1 % splicing rescue at 5 μM [1]: −21.0%
17 | C[C@@H](NC(=O)CNCCCn1cc(CCCCN(C)CCNC(=O)c2ccc(-c3nc4cc(-c5ccc6[nH]c(-c7ccc(OCCCN(C)C)cc7)nc6c5)ccc4[nH]3)cc2)nn1)C(=O)N[C@H](C)C(=O)N[C@H](C)C(=O)N[C@H](C)C(=O)N(CCCn1cc(CCCCN(C)CCNC(=O)c2ccc(-c3nc4cc(-c5ccc6[nH]c(-c7ccc(OCCCN(C)C)cc7)nc6c5)ccc4[nH]3)cc2)nn1)CC(N)=O [Compound 461] | 2.5 µM | – | −35.5% | –

Continued, in another order:

Row | IC50 (r(CUG)12-MBNL1 complex; Table M) | SMILES | MBNL1 % splicing rescue at 1 μM [1] | MBNL1 % splicing rescue at 10 μM [1] | further results
18 | 16.9 µM | c1cc(-c2nc3cc(-c4ccc5[nH]c(-c6ccc(OCCN7CCCCC7)cc6)nc5c4)ccc3[nH]2)ccc1OCCN1CCCCC1 [Compound 350] | 47.2% | – | –
19 | 30.4 µM | CN1CCC[C@H]1COc1ccc(-c2nc3cc(-c4ccc5[nH]c(-c6ccc(OC[C@@H]7CCCN7C)cc6)nc5c4)ccc3[nH]2)cc1 [Compound 356] | 43.7% | 59.2% | –
20 | 19.2 µM | CN1CCCCC1COc1ccc(-c2nc3cc(-c4ccc5[nH]c(-c6ccc(O)cc6)nc5c4)ccc3[nH]2)cc1 (stereo not shown) [Compound 358] | 12.4% | 74.6% | –
21 | 10.1 µM | CN(C)CCNC(=O)c1ccc(-c2nc3cc(-c4ccc5[nH]c(-c6ccc(SCCN(C)C)cc6)nc5c4)ccc3[nH]2)cc1 [Compound 384] | – | 93.9% | –
22 | 10.6 µM | C#CCCCCN(C)CCNC(=O)c1ccc(-c2nc3cc(-c4ccc5[nH]c(-c6ccc(C(=O)NCCN(C)C)cc6)nc5c4)ccc3[nH]2)cc1 [Compound 401, N-(2-(dimethylamino)ethyl)-4-(2′-(4-((2-(hex-5-yn-1-yl(methyl)amino)ethyl)carbamoyl)phenyl)-1H,1′H-[5,5′-bibenzo[d]imidazol]-2-yl)benzamide] | – | – | MBNL1 % splicing rescue at 5 μM [1]: −11.3%
23 | 0.51 µM | CN(C)CCNC(=O)c1ccc(-c2nc3cc(-c4ccc5[nH]c(-c6ccc(C(=O)NCCN(C)CCCCc7cn(CCCNC(=O)CCC(=O)NCCCn8cc(CCCCN(C)CCNC(=O)c9ccc(-c%10nc%11cc(-c%12ccc%13[nH]c(-c%14ccc(C(=O)NCCN(C)C)cc%14)nc%13c%12)ccc%11[nH]%10)cc9)nn8)nn7)cc6)nc5c4)ccc3[nH]2)cc1 [Compound 408] | 3.9% | – | –
24 | 27.3 µM | CN(C)CCCOc1ccc(-c2nc3cc(-c4ccc5[nH]c(-c6ccc(C(=O)NCCCn7cc(COCCOCCOCCOCCN(C)C(=O)c8ccc(-c9nc%10cc(-c%11ccc%12[nH]c(-c%13ccc(C(=O)NCCN(C)C)cc%13)nc%12c%11)ccc%10[nH]9)cc8)nn7)cc6)nc5c4)ccc3[nH]2)cc1 [Compound 459] | – | – | MBNL1 % splicing rescue at 5 μM [1]: −2.6%

— patent publication US10961202B2, “Bis-benzimidazole compounds and methods of using the same” (THE SCRIPPS RESEARCH INSTITUTE, priority 2017, dated 2021)
